Active and inactive are the calls of the source. The calls are words filed in the database; no cut-off is given here.
How the values were obtained:
[1] = target: T1, P2X purinoceptor 7 (Homo sapiens, UniProt Q99572); assay: Antagonist activity at human P2X7 receptor expressed in human 1321N1 cells assessed as reduction in agonist-induced intracellular Ca2+ levels preincubated for 3 mins followed by agonist addition measured up to 2 mins by Fluo-4 dye-based FLIPR assay; type: cell-based
T1 sequence (Q99572 whole entry): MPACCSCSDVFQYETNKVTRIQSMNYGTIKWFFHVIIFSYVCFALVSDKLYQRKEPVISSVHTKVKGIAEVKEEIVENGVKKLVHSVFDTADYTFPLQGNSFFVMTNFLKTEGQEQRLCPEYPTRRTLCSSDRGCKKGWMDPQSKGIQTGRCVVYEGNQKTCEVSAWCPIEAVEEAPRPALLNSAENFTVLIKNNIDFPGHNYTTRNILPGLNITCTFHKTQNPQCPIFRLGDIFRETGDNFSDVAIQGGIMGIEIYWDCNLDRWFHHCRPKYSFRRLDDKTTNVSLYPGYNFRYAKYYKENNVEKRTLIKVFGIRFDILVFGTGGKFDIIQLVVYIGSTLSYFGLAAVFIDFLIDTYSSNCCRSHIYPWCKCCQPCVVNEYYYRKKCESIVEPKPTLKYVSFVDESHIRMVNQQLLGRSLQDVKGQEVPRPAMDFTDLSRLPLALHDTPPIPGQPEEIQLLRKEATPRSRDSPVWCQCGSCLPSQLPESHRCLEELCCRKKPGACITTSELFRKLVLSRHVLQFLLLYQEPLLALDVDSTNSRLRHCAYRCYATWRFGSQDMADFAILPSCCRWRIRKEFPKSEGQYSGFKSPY

[2] = target: P2X purinoceptor 7 (Rattus norvegicus, UniProt Q64663); assay: Antagonist activity at rat P2X7 receptor expressed in human 1321N1 cells assessed as reduction in agonist-induced intracellular Ca2+ levels preincubated for 3 mins followed by agonist addition measured up to 2 mins by Fluo-4 dye-based FLIPR assay; type: cell-based
[3] = target: T2, P2X purinoceptor 7 (Mus musculus, UniProt Q9Z1M0); assay: Antagonist activity at mouse P2X7 receptor expressed in human 1321N1 cells assessed as reduction in agonist-induced intracellular Ca2+ levels preincubated for 3 mins followed by agonist addition measured up to 2 mins by Fluo-4 dye-based FLIPR assay; type: cell-based
T2 sequence (Q9Z1M0 whole entry): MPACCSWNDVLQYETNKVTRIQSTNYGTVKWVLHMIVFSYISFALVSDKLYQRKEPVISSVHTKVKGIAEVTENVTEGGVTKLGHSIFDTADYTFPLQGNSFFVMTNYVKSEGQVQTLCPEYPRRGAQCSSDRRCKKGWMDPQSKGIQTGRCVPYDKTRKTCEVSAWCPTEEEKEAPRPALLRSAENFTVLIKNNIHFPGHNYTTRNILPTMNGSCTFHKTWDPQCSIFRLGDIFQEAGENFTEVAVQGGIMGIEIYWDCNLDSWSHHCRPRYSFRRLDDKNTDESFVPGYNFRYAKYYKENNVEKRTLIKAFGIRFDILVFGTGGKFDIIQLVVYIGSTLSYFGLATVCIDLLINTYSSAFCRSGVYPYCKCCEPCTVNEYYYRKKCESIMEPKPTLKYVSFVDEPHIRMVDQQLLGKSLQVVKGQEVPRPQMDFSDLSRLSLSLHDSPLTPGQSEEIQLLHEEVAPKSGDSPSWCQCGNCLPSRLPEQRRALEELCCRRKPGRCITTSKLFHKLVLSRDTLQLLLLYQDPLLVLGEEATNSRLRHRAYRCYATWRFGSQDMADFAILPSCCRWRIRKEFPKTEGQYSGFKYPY

[4] = target: T1, P2X purinoceptor 7; assay: Antagonist activity at human P2X7 receptor expressed in human THP1 cells assessed as reduction in BzATP-induced pore formation by measuring YO-PRO uptake by FLIPR assay; type: cell-based
[5] = target: T1, P2X purinoceptor 7; assay: Antagonist activity at human P2X7 receptor expressed in human THP1 cells assessed as reduction in BzATP-induced IL-1beta levels preincubated for 30 mins followed by BzATP addition measured after 30 mins by ELISA; type: cell-based
[6] = test system: Peritoneal macrophage; assay: Toxicity in Swiss mouse peritoneal macrophages assessed as LDH release at 10 uM after 60 mins relative to 0.05% Triton X-100; type: cell-based; conditions: 1 h
[7] = target: T3, P2X purinoceptor 7 (Homo sapiens) (UniProt Q99572); assay: Antagonist activity at human P2X7 receptor expressed in HEK293 cells assessed as inhibition of ATP-induced ethidium iodide uptake at 10 uM preincubated for 10 mins followed by ATP addition measured after 20 mins by FLIPR assay relative to 1 mM ATP; type: cell-based
T3 sequence (whole entry): T1 sequence (Q99572 whole entry)

[8] = target: T4, P2X purinoceptor 7 (Mus musculus) (UniProt Q9Z1M0); assay: (§1) Antagonist activity at P2X7 receptor in Swiss mouse peritoneal macrophages assessed as inhibition of ATP-induced propidium iodide uptake after 25 mins by flow cytometric analysis
T4 sequence (whole entry): T2 sequence (Q9Z1M0 whole entry)

[9] = target: T2, P2X purinoceptor 7; assay: as §1
[10] = target: T2, P2X purinoceptor 7; assay: Antagonist activity at P2X7 receptor in Swiss mouse peritoneal macrophages assessed as inhibition of ATP-induced current at holding potential of -60 mV preincubated for 5 mins followed by ATP addition measured after 5 mins by Whole cell patch-clamp analysis
[11] = Cytotoxicity against Swiss mouse peritoneal macrophages after 24 hrs by LDH-release assay; type: cell-based, Peritoneal macrophage
[12] = target: T1, P2X purinoceptor 7; assay: Antagonist activity at human P2X7 receptor expressed in HEK293 cells assessed as inhibition of ATP-induced ethidium iodide uptake preincubated for 10 mins followed by ATP addition measured after 20 mins by spectrofluorometric analysis; type: cell-based
[13] = target: T4, P2X purinoceptor 7 (Mus musculus); assay: Antagonist activity at mouse P2X7 receptor expressed in HEK293 cells assessed as inhibition of ATP-induced ethidium iodide uptake at 10 uM preincubated for 10 mins followed by ATP addition measured after 20 mins by FLIPR assay relative to 1 mM ATP; type: cell-based
[14] = target: P2X purinoceptor 7 (Mus musculus) (UniProt Q9Z1M0); assay: Antagonist activity at P2X7 receptor in Swiss mouse peritoneal macrophages assessed as inhibition of ATP-induced propidium iodide uptake at 10 uM after 30 mins by FLIPR assay relative to 1 mM ATP
[15] = target: T2, P2X purinoceptor 7; assay: Antagonist activity at P2X7 receptor in Swiss mouse peritoneal macrophages assessed as inhibition of BzATP-induced ethidium iodide uptake after 30 mins by spectrofluorometric analysis
[16] = target: T2, P2X purinoceptor 7; assay: Antagonist activity at P2X7 receptor in Swiss mouse peritoneal macrophages assessed as inhibition of BzATP-induced current at holding potential of -60 mV preincubated for 5 mins followed by BzATP addition measured after 5 mins by Whole cell patch-clamp analysis
[17] = test system: Mus musculus; assay: Anti-inflammatory activity in ip dosed Swiss Webster mouse assessed as inhibition of ATP-induced paw edema pretreated for 60 mins followed by ATP administration and measured after 30 mins; type: functional
[18] = test system: Mus musculus; assay: Anti-inflammatory activity in ip dosed Swiss Webster mouse assessed as inhibition of carrageenan-induced paw edema pretreated for 60 mins followed by carrageenan administration and measured after 30 mins; type: functional
[19] = test system: Mus musculus; assay: Anti-inflammatory activity in po dosed Swiss Webster mouse assessed as inhibition of ATP-induced paw edema pretreated for 60 mins followed by ATP administration and measured after 30 mins; type: functional
[20] = test system: Mus musculus; assay: Anti-inflammatory activity in po dosed Swiss Webster mouse assessed as inhibition of carrageenan-induced paw edema pretreated for 60 mins followed by carrageenan administration and measured after 60 mins; type: functional
[21] = target: T1, P2X purinoceptor 7; assay: Antagonist activity at human P2X7 receptor in PMA-differentiated THP-1 macrophages assessed as inhibition of ATP-induced IL-1beta release preincubated for 30 mins followed by ATP addition measured after 30 mins by ELISA
[22] = target: T2, P2X purinoceptor 7; assay: Antagonist activity at P2X7 receptor in LPS/IFNc-differentiated Swiss mouse peritoneal macrophages assessed as inhibition of ATP-induced IL-1beta release preincubated for 30 mins followed by LPS stimulation for 4 hrs using cells treated with ATP for 30 mins by ELISA
[23] = test system: Peritoneal macrophage; assay: Toxicity in Swiss mouse peritoneal macrophages assessed as LDH release at 750 nM after 60 mins relative to 0.05% Triton X-100; type: cell-based; conditions: 1 h, 0.75 µM
[24] = target: T3, P2X purinoceptor 7 (Homo sapiens); assay: Antagonist activity at human P2X7 receptor expressed in HEK293 cells assessed as inhibition of ATP-induced ethidium iodide uptake at 750 nM preincubated for 10 mins followed by ATP addition measured after 20 mins by FLIPR assay relative to 1 mM ATP; type: cell-based
[25] = target: P2X purinoceptor 7 (Mus musculus) (UniProt Q9Z1M0); assay: Antagonist activity at P2X7 receptor in Swiss mouse peritoneal macrophages assessed as inhibition of ATP-induced propidium iodide uptake at 750 nM after 30 mins by FLIPR assay relative to 1 mM ATP

Sequence of P2X purinoceptor 7 (Rattus norvegicus, UniProt Q64663) (Q64663 whole entry): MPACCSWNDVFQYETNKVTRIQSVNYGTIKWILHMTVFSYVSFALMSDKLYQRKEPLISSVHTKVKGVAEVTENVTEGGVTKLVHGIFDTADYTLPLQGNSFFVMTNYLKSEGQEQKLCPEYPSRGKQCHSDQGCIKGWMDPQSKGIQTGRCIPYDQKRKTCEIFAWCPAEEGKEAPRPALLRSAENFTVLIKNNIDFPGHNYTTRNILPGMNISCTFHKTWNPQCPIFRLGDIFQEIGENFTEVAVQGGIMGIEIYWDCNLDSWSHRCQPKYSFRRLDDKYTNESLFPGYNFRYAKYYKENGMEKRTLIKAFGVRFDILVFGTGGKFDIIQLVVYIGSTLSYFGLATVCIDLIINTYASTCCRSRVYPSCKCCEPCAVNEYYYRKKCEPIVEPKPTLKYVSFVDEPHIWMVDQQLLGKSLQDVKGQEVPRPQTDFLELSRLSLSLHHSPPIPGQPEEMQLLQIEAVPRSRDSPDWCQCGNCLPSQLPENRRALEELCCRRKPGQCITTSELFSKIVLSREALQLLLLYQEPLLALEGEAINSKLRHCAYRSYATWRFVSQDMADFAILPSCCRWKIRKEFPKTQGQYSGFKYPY

SMILES | Activity [6] | inhibition [7] | inhibition [8] | IC50 [9] | IC50 [10] | CC50 at 24 h [11] | IC50 [12] | inhibition [13] | inhibition [14] | also measured
Clc1cccc(-n2nnnc2NCc2ccccc2Oc2ccccn2)c1Cl |  |  |  |  |  |  |  |  |  | IC50 [1]: 20 to 150 nM; IC50 [2]: 20 to 150 nM; IC50 [3]: 20 to 150 nM; IC50 [4]: 6.61 nM; IC50 [5]: 37.2 nM
OCc1cnn(-c2ccccc2)n1 | 9.18% | 90.2% | Dose-dependent effect | 96 nM | 81 nM | 2360 nM | 522 nM | Active | 84.2% | 
CCCCOCc1cn(-c2cc(Cl)ccc2Cl)nn1 | 11.66% | 90.1% | Dose-dependent effect | 317 nM | 316 nM | 505 nM | 621 nM |  | 79.8% | 
COc1ccc(CC(=O)NC(N/C(=N/C#N)Nc2cccc3ncccc23)C(C)(C)C)cc1OC (stereo not given) |  |  |  |  |  |  | 86 nM |  |  | IC50 [15]: 63.3 nM; IC50 [16]: 46.9 nM; ID50 [17]: 0.1058 µg/kg; ID50 [18]: 0.1423 µg/kg; ID50 [19]: 0.1097 µg/kg; ID50 [20]: 0.119 µg/kg; IC50 [21]: 82 nM; IC50 [22]: 112 nM
COc1ccc(-n2cc(CO)nn2)cc1 | 9.7% | 94.1% | Dose-dependent effect | 488 nM | 341 nM | 363 nM | 932 nM | Active | 86.3% | 
O/N=C/c1cnn(-c2ccccc2)n1 | 12.66% | 94.3% | Dose-dependent effect | 349 nM | 457 nM | 250 nM | 897 nM | Active | 83% | 
CCOc1ccc(Nc2ccc(/C(=C3C=C/C(=[N+](/CC)Cc4cccc(S(=O)(=O)[O-])c4)C=C/3C)c3ccc(N(CC)Cc4cccc(S(=O)(=O)[O-])c4)cc3C)cc2)cc1.[Na+] [BRILLIANT BLUE G] |  |  | Dose-dependent effect | 343 nM | 109 nM |  | 552 nM |  |  | IC50 [15]: 432 nM; IC50 [16]: 407 nM; Activity [23]: 13.22%; inhibition [24]: 90.1%; inhibition [25]: 78.9%
CCCCCCCCCC(=O)OCc1cn(-c2ccc(Cl)cc2)nn1 | 8% | 78% | Dose-dependent effect | 107 nM | 103 nM | 2840 nM | 108 nM |  | 76% | 
O=Cc1cn(-c2ccccc2)nn1 | 10.51% | 95.3% | Dose-dependent effect | 167 nM | 103 nM | 3740 nM | 478 nM | Active | 84.6% | 
